# Data as given in patent publication US20090220614A1, “Thermo-Responsive Block Co-Polymers, and Use Thereof” (The Trustees of the University of Pennsylvania, priority 2005, published 2009).
# Experiment: Release of doxorubicin from OPA215 vesicles, dialysis cassette in PBS, 485 nm absorption
# Format: physicochemical
# Conditions: 37° C., within 2 hours
# Description: The Dox-loaded vesicles were centrifuged at 40° C. to remove excess free Dox and resuspended into a 0.320 osM PBS solution at ° C. Then, 3 ml of the aforementioned solution was injected into a dialysis cassette (molecular weight cut-off 3000 g mol^−1), and dialyzed against the PBS solution at 37° C. for 6 hours to ensure complete removal of any free Dox outside of the vesicles. After the initial aliquot was taken, the cassette was immersed in a 300 ml PBS solution at 37° and 27° C., respectively, for monitoring the 485 nm absorption peak of Dox using UV-vis spectrometry. At time intervals, a 3 ml aliquot of the PBS solution was sampled from the external solution of the dialysis cassette.
# To study thermally triggered release of Dox from the OPA215 vesicles in PBS solutions, vesicles and control samples were entrapped in dialysis cassettes and sampled in external PBS solutions for the 485 nm absorption peak of Dox at different time intervals (FIG. 9).
structure (smiles),measurement,value
"COc1cccc2c1C(=O)c1c(O)c3c(c(O)c1C2=O)C[C@@](O)(C(=O)CO)C[C@@H]3O[C@H]1C[C@H](N)[C@H](O)[C@H](C)O1 [free Dox, Doxorubicin]",loss of Dox during dialysis,> 70%
